What all share (assay type): cell-based
The subject of assay [1] is A549 human lung epithelial cells.
Assay [2] concerns Yersinia pestis, Yersinia enterocolitica.
Assay [3] deals with Yersinia pestis, Yersinia enterocolitica and Yersinis pseudomonas.

Turning to `CCCC(=[Se])NC1CCOC1=O` (stereo not shown) [(IV), N-(2-oxo-tetrahydro-furan-3-yl)-selenobutyramide], in assay [1], the “infection of cells by Pseudomonas aeruginosa” value is reported as “prevented the infection of cells” and the viability of cells result is given as “increase in the viability of cells”. In assay [2], the biofilm formation result is reported as “significantly inhibited”. Besides, the “viability of biofilm-growing bacteria” value in assay [3] is “significantly inhibited”.

The values above are taken from US8350061B2, “Synthetic analogs of bacterial quorum sensors” (priority 2009, dated 2013).
